Experimental data published in US11332438B2, “Creatine prodrugs, compositions and methods of use thereof” (Ultragenyx Pharmaceutical Inc., priority 2017, dated 2022).
Structures can show the parent of a compound that is named as a salt. Blank lines part the entries; values can stand above or below the compound they belong to.

Assays:
[1] = tested on: Phenocell CrT deficient neurons (iPSC-derived human neurons); test: Creatine prodrug uptake and d3-creatine release in Phenocell CrT deficient neurons (Table 4B); format: cell-based; conditions: 2 hours
Procedure: Human neurons were obtained by differentiation of iPSC-derived neural stem cells for 14 days. The iPSCs were obtained from Phenocell Corporation. Neurons were cultured and differentiated to Day 10 and then frozen in liquid nitrogen. Neurons were thawed and replated at 1×10^6 per well of viable cells on poly-ornithine/laminin coated plates in 2 ml medium per well. Differentiation in complete Neurol medium with 2 ng/ml FGF2 was carried out for 4 additional days with a complete medium change (90% of medium) on Day 12. Activin A (20 ng/ml final conc.) was spiked into the cultures on Day 11 and Day 13. […] In parallel, compounds were incubated in medium alone to assess chemical stability of parent prodrug and metabolites. At the end of the 2 hour incubation, supernatants were collected and frozen at −80 C. Neurons in 6 well plates were washed gently 3× with HBSS and frozen at −80° C. Cell lysates were obtained by addition of 130 μl/well 10 mM Tris pH 7.4 with complete Mini protease inhibitors and scraping of wells. Plates were kept on ice during processing. Lysates were homogenized by hand briefly with a green pestle in 1.5 ml centrifuge tubes and then vortexed at high speed for 5 seconds. Lysates were centrifuged at 13,000 g, 10 minutes, 4 C and supernatants (cytosol fraction) were transferred in a new tube. A crash solution constituted of 80% acetonitrile and 20% water with bucetin, d5-Cr (internal standard) was added at 4:1 volume to volume to 50 ul of all samples for a total volume of 250 μL. Then plate was spun at 4000 rpm, 10 minutes, […] Samples were transferred to a new plate and frozen at −80 C prior to analysis by LC-MS/MS (Table 4B).

[2] = Chemical stability in phosphate buffered saline (PBS); format: physicochemical; conditions: Table 2B, 50 μM prodrug
Procedure: (§1) Chemical stability of creatine prodrugs in phosphate buffered saline (PBS), simulated intestinal fluid (SIF) without pancreatin, simulated gastric fluid (SGF) without pepsin were determined by LC-UV, LC-CAD, LC-UV-CAD or LC-MS/MS as appropriate. Creatine prodrugs of the present disclosure (50 μM) were incubated at 37° C. according to described protocols and prodrug levels were compared between t=0, t=15, t=60, and t=120 mins by peak area ratio to determine the percentage remained at t=120 mins (2 h).
(§2) Protocol for PBS, SIF and SGF stability for screening:
(§3) Prodrugs (50 μM) were incubated in PBS, FaSSIF (Biorelevant) or FaSSGF (Biorelevant) at 37° C.

[3] = Chemical stability in simulated gastric fluid (SGF) without pepsin; format: physicochemical; conditions: Table 2B, 50 μM prodrug
Procedure: as §1, §2, §3

[4] = Plasma stability, human plasma; format: in vitro ADME; conditions: 37 °C, read-out: Plasma Stability Human t1/2
Procedure: (§4) The stabilities of creatine prodrugs can be evaluated in one or more in vitro systems using a variety of preparations following methods known in the art. Experimental conditions useful for the in vitro studies are described in Table 1. Prodrug is added to each preparation in triplicate. […]
(§5) Protocol for plasma stability for early screen macrocycles (Method A):
(§6) Frozen plasma was thawed by placing at 37° C. quickly and centrifuged at 3,000 rpm for 8 minutes to remove clots. Then the supernatant was pipetted and pooled as the plasma to be used in the experiment. The plasma was placed on ice until used. The test compounds and reference compounds spiking solution was prepared as a 2.5 mM test compounds spiking solution A: Add 20 μL of 10 mM test compounds stock solution to 60 μL DMSO. 0.1 mM Spiking solution B was prepared: Add 40 μL of spiking solution A to 960 μL of […] Sodium phosphate buffer with 0.5% BSA. […] For 0-min, 400 μL of ACN containing IS was added to the wells of 0-min plate and then 90 μL of plasma was added. […] 50 μL of the supernatant was transferred from each well into a 96-well sample plate containing 120 μL of ultra pure water (Millipore, ZMQS50F01) and analyzed by LC/MS.
(§7) Protocol for plasma stability (Method B):
(§8) The frozen plasma was thawed in a 37° C. water bath and then, if needed, adjusted to pH=7.4 then preheated in a 37° C. incubator. The test article was dissolved in 10% DMSO/water and spiked into plasma pre-plated into 96 well plates at a final concentration of 1 μM. Discrete incubations were performed at 37° C. and included 5 time points: t=0, 2, 5, 15, and 30 min. Samples were then crashed with 4× volume, ice cold 20% water/80% acetonitrile and spun at 4000 g for 10 mins. The supernatant was dried down and reconstituted with water and analyzed by LC-MS/MS. The half life in minute was calculated.

[5] = Liver microsome stability, mouse; format: in vitro ADME; conditions: liver microsomes, pH 7.4, Table 2B, read-out: Microsome Stability Mouse t1/2
Procedure: as §4
(§9) Protocol for Microsomal Stability:
(§10) For reference compound, a 500 μM spiking solution was prepared: add 10 μL of 10 mM DMSO stock solution into 190 μL ACN. […] For test compound, a 5 mM spiking solution was prepared: add 10 μL of 10 mM DMSO stock solution into 10 μL ACN. […] NADPH stock solution (6 mM) was prepared by dissolving NADPH into buffer 0.1 M Potassium Phosphate buffer, 1.0 mM EDTA, pH 7.4. […] For 0-min, 135 μL of ACN containing IS was added to the wells of 0-min plate and then 15 μL of NADPH stock solution (6 mM) was added. 15 μL of NADPH stock solution (6 mM) was added to the samples designated as 0-, 5-, 10-, 20-, 30-min, 60-min; 15 μL of buffer 0.1 M Potassium Phosphate buffer, 1.0 mM EDTA, pH 7.4, was added to the samples designated as 60-min without NADPH. At 5-min, 10-min, 20-min, and 30-min, 60-min 135 μL of ACN containing IS was added to the wells of corresponding plates, respectively, to stop the reaction. […] 50 μL of the supernatant from each well was transferred into a 96-well sample plate containing 50 μL of ultra pure water (Millipore, ZMQS50FOI) and analyzed by LC/MS.

[6] = Plasma stability, mouse plasma; format: in vitro ADME; conditions: 37 °C, read-out: Plasma Stability Mouse t1/2
Procedure: as §4, §5, §6, §7, §8

[7] = Liver microsome stability, human; format: in vitro ADME; conditions: liver microsomes, pH 7.4, Table 2B, read-out: Microsome Stability Human t1/2
Procedure: as §4, §9, §10

Compound: [2H]C([2H])([2H])N1CC(=O)OC(CCC)CCCCCCCC(=O)NC1=N (stereo not drawn) [Compound W, 5-imino-4-trideuteriomethyl-15-propyl-1-oxa-4,6-diazacyclopentadecane-2,7-dione]
Prodrug concentration in the cell cytosol ([1]; Study No. 3, 50 μM): 0.44 nmoles/mg protein | d3-Creatine concentration in the cell cytosol ([1]; Study No. 3, 50 μM): BLOQ

Compound: Cl.[2H]C([2H])([2H])N(CC(=O)OC(C)C(C)(C)C)C(=N)NC(=O)CCCCCCCCCC (stereo not drawn) [Compound 52]
Chemical Stability PBS % T0 at 2 hours at 37 °C. [2]: 98% | Chemical Stability SGF, no enzyme % T0 at 2 hours at 37 °C. [3]: 98% | Prodrug concentration in the cell cytosol ([1]; Study No. 1, 10 μM): 3.47 nmoles/mg protein | d3-Creatine concentration in the cell cytosol ([1]; Study No. 1, 10 μM): 0.65 nmoles/mg protein | d3-Creatinine concentration in the cell cytosol ([1]; Study No. 1, 10 μM): 0.84 nmoles/mg protein | Prodrug concentration in the cell cytosol ([1]; Study No. 1, 50 μM): 12 nmoles/mg protein | d3-Creatine concentration in the cell cytosol ([1]; Study No. 1, 50 μM): 2.9 nmoles/mg protein | d3-Creatinine concentration in the cell cytosol ([1]; Study No. 1, 50 μM): 29.6 nmoles/mg protein | Prodrug concentration in the cell cytosol ([1]; Study No. 2, 50 μM): 9.5 nmoles/mg protein | d3-Creatine concentration in the cell cytosol ([1]; Study No. 2, 50 μM): 0.8 nmoles/mg protein | d3-Creatinine concentration in the cell cytosol ([1]; Study No. 2, 50 μM): 10.6 nmoles/mg protein | Prodrug concentration in the cell cytosol ([1]; Study No. 3, 50 μM): 0.51 nmoles/mg protein | d3-Creatine concentration in the cell cytosol ([1]; Study No. 3, 50 μM): 2.84 nmoles/mg protein | d3-Creatinine concentration in the cell cytosol ([1]; Study No. 3, 50 μM): 8.82 nmoles/mg protein

Compound: [2H]C([2H])([2H])N1CC(=O)OC(C)CCCCCCCCCCC(=O)NC1=N (stereo not drawn) [Compound M]
Prodrug concentration in the cell cytosol ([1]; Study No. 2, 100 μM): BLOQ | Prodrug concentration in the cell cytosol ([1]; Study No. 2, 500 μM): BLOQ

Compound: [2H]C([2H])([2H])N(CC(=O)O)C(=N)NC(=O)CCCCCCCCCCO [Compound 54]
half-life ([4]; Table 2B): > 3 h | half-life at 10 μM [5]: > 1.5 h | half-life ([6]; Table 2B): > 3 h | Chemical Stability PBS % T0 at 2 hours at 37 °C. [2]: 103% | half-life at 10 μM [7]: > 1.5 h | Chemical Stability SGF, no enzyme % T0 at 2 hours at 37 °C. [3]: 102% | Prodrug concentration in the cell cytosol ([1]; Study No. 1, 10 μM): BLOQ | d3-Creatine concentration in the cell cytosol ([1]; Study No. 1, 10 μM): BLOQ | d3-Creatinine concentration in the cell cytosol ([1]; Study No. 1, 10 μM): BLOQ | Prodrug concentration in the cell cytosol ([1]; Study No. 1, 50 μM): BLOQ | d3-Creatine concentration in the cell cytosol ([1]; Study No. 1, 50 μM): BLOQ | d3-Creatinine concentration in the cell cytosol ([1]; Study No. 1, 50 μM): BLOQ

Compound: [2H]C([2H])([2H])N1CC(=O)O[C@H](C)CCCCCCCCCC(=O)NC1=N [Compound Q, (R)-5-imino-4,17-dimethyl-1-oxa-4,6-diazacycloheptadecane-2,7-dione Hydrochloride]
half-life ([4]; Table 2C, macrocycles): 0.167 h | half-life ([6]; Table 2C, macrocycles): 0.0217 h | Prodrug concentration in the cell cytosol ([1]; Study No. 2, 100 μM): BLOQ | Prodrug concentration in the cell cytosol ([1]; Study No. 2, 500 μM): BLOQ

Compound: [2H]C([2H])([2H])N1CC(=O)OC(C)(C)CCCCCCCCCC(=O)NC1=N [Compound U, 5-imino-4-trideuteriomethyl-17,17-dimethyl-1-oxa-4,6-diazacycloheptadecane-2,7-dione]
half-life ([4]; Table 2C, macrocycles): 1.2 h | half-life ([6]; Table 2C, macrocycles): 1.17 h | Prodrug concentration in the cell cytosol ([1]; Study No. 3, 50 μM): 0.48 nmoles/mg protein | d3-Creatine concentration in the cell cytosol ([1]; Study No. 3, 50 μM): BLOQ

Second part, the compound after the results:

Prodrug concentration in the cell cytosol ([1]; Study No. 3, 50 μM): BLOQ | d3-Creatine concentration in the cell cytosol ([1]; Study No. 3, 50 μM): BLOQ
Compound: [2H]C([2H])([2H])N1CC(=O)OC(CC)CCCCCCCC(=O)NC1=N (stereo not drawn) [Compound V, 15-ethyl-5-imino-4-(methyl-d3)-1-oxa-4,6-diazacyclopentadecane-2,7-dione]

Prodrug concentration in the cell cytosol ([1]; Study No. 3, 50 μM): BLOQ | d3-Creatine concentration in the cell cytosol ([1]; Study No. 3, 50 μM): BLOQ
Compound: [2H]C([2H])([2H])N1CC(=O)OC(C)CCCCCCCC(=O)NC1=N (stereo not drawn) [Compound S, 5-imino-4-trideuteriomethyl-15-methyl-1-oxa-4,6-diazacyclopentadecane-2,7-dione]

Prodrug concentration in the cell cytosol ([1]; Study No. 3, 50 μM): BLOQ | d3-Creatine concentration in the cell cytosol ([1]; Study No. 3, 50 μM): BLOQ
Compound: [2H]C([2H])([2H])N1CC(=O)OCCCCCCC(=O)NC1=N [Compound EE, 5-imino-4-trideuteriomethyl-1-oxa-4,6-diazacyclotridecane-2,7-dione]

Prodrug concentration in the cell cytosol ([1]; Study No. 3, 50 μM): BLOQ | d3-Creatine concentration in the cell cytosol ([1]; Study No. 3, 50 μM): BLOQ
Compound: [2H]C([2H])([2H])N1CC(=O)OC(C)(C)CCCCCCCC(=O)NC1=N [Compound X, 5-imino-15,15-dimethyl-4-(methyl-d3)-1-oxa-4,6-diazacyclopentadecane-2,7-dione]

Prodrug concentration in the cell cytosol ([1]; Study No. 3, 50 μM): 0.088 nmoles/mg protein | d3-Creatine concentration in the cell cytosol ([1]; Study No. 3, 50 μM): BLOQ
Compound: [2H]C([2H])([2H])N1CC(=O)OC(C)(C)CCCCCCCCC(=O)NC1=N [Compound HH, 5-imino-4-trideuteriomethyl-16,16-Dimethyl-1-oxa-4,6-diazacyclohexadecane-2,7-dione]
